Patent US10968222B2, “2-azabicyclo hexane JAK inhibitor compound” (THERAVANCE BIOPHARMA R&D IP, LLC, priority 2018, dated 2021)

How the values were obtained:
[1] = molecular target: T1, SRC (Homo sapiens, UniProt P12931); assay: Kinome screen, SRC; format: binding; conditions: screened at 1 μM
T1 construct: made in house; host or cells: E. coli BL21-derived host (T7 phage) or HEK-293 cells
Experimental: (§1) Compounds 1 and C-1 were screened against other kinases to evaluate their selectivity profile.
(§2) Kinase-tagged T7 phage strains were grown in parallel in 24-well blocks in an E. coli host derived from the BL21 strain. E. coli were grown to log-phase and infected with T7 phage from a frozen stock (multiplicity of infection=0.4) and incubated with shaking at 32° C. until lysis (90-150 minutes). The lysates were centrifuged (6,000×g) and filtered (0.2 μm) to remove cell debris. The remaining kinases were produced in HEK-293 cells and subsequently tagged with DNA for qPCR detection.
(§3) Streptavidin-coated magnetic beads were treated with biotinylated small molecule ligands for 30 minutes at room temperature to generate affinity resins for kinase assays. The liganded beads were blocked with excess biotin and washed with blocking buffer (SeaBlock (Pierce), 1% BSA, 0.05% Tween 20, 1 mM DTT) to remove unbound ligand and to reduce non-specific phage binding. Binding reactions were assembled by combining kinases, liganded affinity beads, and test compounds in 1× binding buffer (20% SeaBlock, 0.17×PBS, 0.05% Tween 20, 6 mM DTT). Test compounds were prepared as 40× stocks in 100% DMSO and directly diluted into the assay. All reactions were performed in polypropylene 384-well plates in a final volume of 0.04 ml. […] The kinase concentration in the eluates was measured by qPCR. […]

[2] = molecular target: T2, GSK3B (Homo sapiens, UniProt P49841); assay: Kinome screen, GSK3B; format: binding; conditions: screened at 1 μM
T2 construct: made in house; host or cells: E. coli BL21-derived host (T7 phage) or HEK-293 cells
Experimental: as §1, §2, §3

[3] = molecular target: T3, PAK4 (Homo sapiens, UniProt O96013); assay: Kinome screen, PAK4; format: binding; conditions: screened at 1 μM
T3 construct: made in house; host or cells: E. coli BL21-derived host (T7 phage) or HEK-293 cells
Experimental: as §1, §2, §3

[4] = molecular target: T4, PLK4 (Homo sapiens, UniProt O00444); assay: Kinome screen, PLK4; format: binding; conditions: screened at 1 μM
T4 construct: made in house; host or cells: E. coli BL21-derived host (T7 phage) or HEK-293 cells
Experimental: as §1, §2, §3

[5] = molecular target: T5, CDK2 (Homo sapiens, UniProt P24941); assay: Kinome screen, CDK2; format: binding; conditions: screened at 1 μM
T5 construct: made in house; host or cells: E. coli BL21-derived host (T7 phage) or HEK-293 cells
Experimental: as §1, §2, §3

[6] = molecular target: T6, VEGFR2 (Homo sapiens, UniProt P35968); assay: Kinome screen, VEGFR2; format: binding; conditions: screened at 1 μM
T6 construct: made in house; host or cells: E. coli BL21-derived host (T7 phage) or HEK-293 cells
Experimental: as §1, §2, §3

[7] = molecular target: T7, SLK (Homo sapiens, UniProt Q9H2G2); assay: Kinome screen, SLK; format: binding; conditions: screened at 1 μM
T7 construct: made in house; host or cells: E. coli BL21-derived host (T7 phage) or HEK-293 cells
Experimental: as §1, §2, §3

[8] = molecular target: T8, AURKA (Homo sapiens, UniProt O14965); assay: Kinome screen, AURKA; format: binding; conditions: screened at 1 μM
T8 construct: made in house; host or cells: E. coli BL21-derived host (T7 phage) or HEK-293 cells
Experimental: as §1, §2, §3

[9] = molecular target: T9, CDK7 (Homo sapiens, UniProt P50613); assay: Kinome screen, CDK7; format: binding; conditions: screened at 1 μM
T9 construct: made in house; host or cells: E. coli BL21-derived host (T7 phage) or HEK-293 cells
Experimental: as §1, §2, §3

[10] = molecular target: T10, CSNK1D (Homo sapiens, UniProt P48730); assay: Kinome screen, CSNK1D; format: binding; conditions: screened at 1 μM
T10 construct: made in house; host or cells: E. coli BL21-derived host (T7 phage) or HEK-293 cells
Experimental: as §1, §2, §3

[11] = molecular target: T11, KIT (Homo sapiens, UniProt P10721); assay: Kinome screen, KIT; format: binding; conditions: screened at 1 μM
T11 construct: made in house; host or cells: E. coli BL21-derived host (T7 phage) or HEK-293 cells
Experimental: as §1, §2, §3

[12] = molecular target: T12, CDK9 (Homo sapiens, UniProt P50750); assay: Kinome screen, CDK9; format: binding; conditions: screened at 1 μM
T12 construct: made in house; host or cells: E. coli BL21-derived host (T7 phage) or HEK-293 cells
Experimental: as §1, §2, §3

[13] = molecular target: T13, SYK (Homo sapiens, UniProt P43405); assay: Kinome screen, SYK; format: binding; conditions: screened at 1 μM
T13 construct: made in house; host or cells: E. coli BL21-derived host (T7 phage) or HEK-293 cells
Experimental: as §1, §2, §3

[14] = molecular target: T14, EPHB6 (Homo sapiens, UniProt O15197); assay: Kinome screen, EPHB6; format: binding; conditions: screened at 1 μM
T14 construct: made in house; host or cells: E. coli BL21-derived host (T7 phage) or HEK-293 cells
Experimental: as §1, §2, §3

[15] = molecular target: T15, CSF1R (Homo sapiens, UniProt P07333); assay: Kinome screen, CSF1R; format: binding; conditions: screened at 1 μM
T15 construct: made in house; host or cells: E. coli BL21-derived host (T7 phage) or HEK-293 cells
Experimental: as §1, §2, §3

[16] = molecular target: T16, ALK (Homo sapiens, UniProt Q9UM73); assay: Kinome screen, ALK; format: binding; conditions: screened at 1 μM
T16 construct: made in house; host or cells: E. coli BL21-derived host (T7 phage) or HEK-293 cells
Experimental: as §1, §2, §3

[17] = system: BEAS-2B human lung epithelial cells; assay: CellTiter-Glo cell viability/cytotoxicity assay; format: cell-based; conditions: BEAS-2B cells; 48 h; 15% inhibition threshold
Experimental: A CellTiter-Glo luminescent cell viability/cytotoxicity assay was carried out in BEAS-2B human lung epithelial cells (ATCC) under the normal growth condition.
Cells were grown at 37° C. in a 5% CO2 humidified incubator in 50% DMEM/50% F-12 medium (Life Technologies) supplemented with 10% FBS (Hyclone), 100 U/mL penicillin, 100 μg/mL streptomycin (Life Technologies), and 2 mM GlutaMAX (Life Technologies). On day 1 of the assay, cells were seeded at a 500 cells/well density in white 384-well tissue culture plates (Corning) with 25 μL medium, and were allowed to adhere overnight in the incubator. On day 2 of the assay, 5 μL of medium containing dose-responses of test compounds was added, and incubated at 37° C. for 48 h. 30 μL of CellTiter-Glo detection solution (Promega) was subsequently added, mixed on an orbital shaker for 5 min, and incubated for additional 10 min before being read on the EnVision reader. Luminescence signals were recorded and percent DMSO control values were calculated.
For dose-response analysis, percent DMSO control data were plotted vs. compound concentrations to derive dose-response curves by line connecting each data point. The concentration at which each curve crosses the 15% inhibition threshold is defined as CC15.

[18] = molecular target: T17, PKAC-ALPHA (Homo sapiens, UniProt P17612); assay: Kinome screen, PKAC-ALPHA; format: binding; conditions: screened at 1 μM
T17 construct: made in house; host or cells: E. coli BL21-derived host (T7 phage) or HEK-293 cells
Experimental: as §1, §2, §3

T8 sequence (O14965 whole entry): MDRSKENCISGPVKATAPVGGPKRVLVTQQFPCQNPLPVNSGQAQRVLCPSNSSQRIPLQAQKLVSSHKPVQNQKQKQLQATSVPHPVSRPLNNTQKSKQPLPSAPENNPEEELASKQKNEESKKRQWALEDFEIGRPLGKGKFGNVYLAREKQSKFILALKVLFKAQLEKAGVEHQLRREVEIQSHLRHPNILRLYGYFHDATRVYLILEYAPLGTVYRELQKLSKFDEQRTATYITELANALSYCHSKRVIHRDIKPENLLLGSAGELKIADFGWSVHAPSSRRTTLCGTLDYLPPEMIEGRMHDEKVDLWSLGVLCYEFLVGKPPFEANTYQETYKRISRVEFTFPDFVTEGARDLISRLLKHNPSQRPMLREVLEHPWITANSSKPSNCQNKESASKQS
T14 sequence (O15197 32-1021): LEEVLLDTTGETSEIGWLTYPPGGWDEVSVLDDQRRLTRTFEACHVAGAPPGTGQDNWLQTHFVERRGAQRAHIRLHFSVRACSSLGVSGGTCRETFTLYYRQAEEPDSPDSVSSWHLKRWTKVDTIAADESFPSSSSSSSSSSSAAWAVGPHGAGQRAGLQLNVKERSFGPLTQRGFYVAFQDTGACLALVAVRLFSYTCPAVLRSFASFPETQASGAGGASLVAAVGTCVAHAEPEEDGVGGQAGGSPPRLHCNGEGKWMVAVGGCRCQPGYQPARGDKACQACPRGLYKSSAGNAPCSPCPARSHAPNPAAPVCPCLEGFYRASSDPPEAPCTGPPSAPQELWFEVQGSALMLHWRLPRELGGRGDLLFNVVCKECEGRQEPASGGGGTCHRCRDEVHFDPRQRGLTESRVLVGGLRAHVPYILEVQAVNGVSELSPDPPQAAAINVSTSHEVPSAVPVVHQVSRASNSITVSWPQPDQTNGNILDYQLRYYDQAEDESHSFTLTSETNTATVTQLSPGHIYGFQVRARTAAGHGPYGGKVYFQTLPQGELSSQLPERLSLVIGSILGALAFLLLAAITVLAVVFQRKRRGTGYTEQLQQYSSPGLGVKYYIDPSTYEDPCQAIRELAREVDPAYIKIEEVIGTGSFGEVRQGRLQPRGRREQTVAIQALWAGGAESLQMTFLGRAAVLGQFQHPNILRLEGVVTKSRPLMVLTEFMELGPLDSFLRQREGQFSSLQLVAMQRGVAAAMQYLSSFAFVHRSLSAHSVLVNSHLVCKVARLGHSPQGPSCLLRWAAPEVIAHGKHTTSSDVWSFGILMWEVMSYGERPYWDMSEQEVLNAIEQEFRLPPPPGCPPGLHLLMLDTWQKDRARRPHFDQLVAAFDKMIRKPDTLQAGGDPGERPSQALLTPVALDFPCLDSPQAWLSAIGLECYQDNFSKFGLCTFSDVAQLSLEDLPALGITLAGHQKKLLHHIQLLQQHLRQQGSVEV
T1 sequence (P12931 whole entry): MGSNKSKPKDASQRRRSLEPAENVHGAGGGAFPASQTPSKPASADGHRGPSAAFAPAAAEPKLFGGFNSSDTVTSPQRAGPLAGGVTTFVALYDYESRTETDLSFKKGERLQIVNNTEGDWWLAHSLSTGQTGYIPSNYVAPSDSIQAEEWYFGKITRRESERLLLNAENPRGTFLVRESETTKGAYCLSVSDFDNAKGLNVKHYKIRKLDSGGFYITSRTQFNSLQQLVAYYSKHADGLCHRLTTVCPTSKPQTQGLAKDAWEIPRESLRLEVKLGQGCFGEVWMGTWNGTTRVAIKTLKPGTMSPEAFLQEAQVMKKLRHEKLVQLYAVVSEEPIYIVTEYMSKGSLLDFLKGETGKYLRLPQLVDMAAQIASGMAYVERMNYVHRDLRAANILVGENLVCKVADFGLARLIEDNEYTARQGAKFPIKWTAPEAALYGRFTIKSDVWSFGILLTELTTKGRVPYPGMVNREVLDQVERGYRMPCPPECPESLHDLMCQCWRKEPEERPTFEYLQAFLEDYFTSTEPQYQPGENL
T10 sequence (P48730 whole entry): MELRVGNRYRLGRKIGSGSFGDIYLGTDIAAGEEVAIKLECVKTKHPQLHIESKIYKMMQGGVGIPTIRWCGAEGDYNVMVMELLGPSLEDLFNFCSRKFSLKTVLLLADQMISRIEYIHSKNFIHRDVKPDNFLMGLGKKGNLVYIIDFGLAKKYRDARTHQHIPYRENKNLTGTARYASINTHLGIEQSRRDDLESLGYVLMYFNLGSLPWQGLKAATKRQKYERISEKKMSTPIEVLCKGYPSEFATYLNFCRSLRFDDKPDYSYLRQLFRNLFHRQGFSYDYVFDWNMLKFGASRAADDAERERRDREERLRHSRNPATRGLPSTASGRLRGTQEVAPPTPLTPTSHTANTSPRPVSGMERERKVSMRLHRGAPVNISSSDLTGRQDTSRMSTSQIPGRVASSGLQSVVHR
T7 sequence (Q9H2G2 whole entry): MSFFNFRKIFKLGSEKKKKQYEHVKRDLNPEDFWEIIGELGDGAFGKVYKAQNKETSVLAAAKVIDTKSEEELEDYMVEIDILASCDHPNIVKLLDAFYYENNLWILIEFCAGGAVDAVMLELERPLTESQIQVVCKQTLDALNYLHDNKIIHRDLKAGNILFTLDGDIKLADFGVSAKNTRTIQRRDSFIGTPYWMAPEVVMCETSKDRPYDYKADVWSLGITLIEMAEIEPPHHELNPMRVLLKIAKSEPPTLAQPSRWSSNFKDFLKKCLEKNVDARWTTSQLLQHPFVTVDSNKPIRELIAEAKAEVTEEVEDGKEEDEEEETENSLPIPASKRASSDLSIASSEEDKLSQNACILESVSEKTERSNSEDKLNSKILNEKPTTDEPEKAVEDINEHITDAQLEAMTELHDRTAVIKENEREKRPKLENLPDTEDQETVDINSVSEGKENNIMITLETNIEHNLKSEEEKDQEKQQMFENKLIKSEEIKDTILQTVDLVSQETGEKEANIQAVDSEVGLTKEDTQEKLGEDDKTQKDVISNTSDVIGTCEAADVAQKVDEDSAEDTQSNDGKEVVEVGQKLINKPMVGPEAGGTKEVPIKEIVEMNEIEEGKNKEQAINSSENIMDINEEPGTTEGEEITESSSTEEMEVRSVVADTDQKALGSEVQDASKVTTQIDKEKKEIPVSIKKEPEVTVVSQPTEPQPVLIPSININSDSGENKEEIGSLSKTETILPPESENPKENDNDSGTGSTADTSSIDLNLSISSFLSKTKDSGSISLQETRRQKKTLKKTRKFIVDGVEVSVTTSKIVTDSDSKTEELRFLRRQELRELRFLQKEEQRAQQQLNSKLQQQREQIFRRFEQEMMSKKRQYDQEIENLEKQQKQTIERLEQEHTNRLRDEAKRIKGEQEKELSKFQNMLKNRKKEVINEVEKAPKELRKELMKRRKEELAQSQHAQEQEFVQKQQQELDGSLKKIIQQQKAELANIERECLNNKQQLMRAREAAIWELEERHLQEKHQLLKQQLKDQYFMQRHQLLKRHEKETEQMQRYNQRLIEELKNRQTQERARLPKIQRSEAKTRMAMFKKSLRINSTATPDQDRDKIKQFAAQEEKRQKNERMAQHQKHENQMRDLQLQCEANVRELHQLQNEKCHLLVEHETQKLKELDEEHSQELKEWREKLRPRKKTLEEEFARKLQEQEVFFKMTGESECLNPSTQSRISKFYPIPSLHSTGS
T2 sequence (P49841 whole entry): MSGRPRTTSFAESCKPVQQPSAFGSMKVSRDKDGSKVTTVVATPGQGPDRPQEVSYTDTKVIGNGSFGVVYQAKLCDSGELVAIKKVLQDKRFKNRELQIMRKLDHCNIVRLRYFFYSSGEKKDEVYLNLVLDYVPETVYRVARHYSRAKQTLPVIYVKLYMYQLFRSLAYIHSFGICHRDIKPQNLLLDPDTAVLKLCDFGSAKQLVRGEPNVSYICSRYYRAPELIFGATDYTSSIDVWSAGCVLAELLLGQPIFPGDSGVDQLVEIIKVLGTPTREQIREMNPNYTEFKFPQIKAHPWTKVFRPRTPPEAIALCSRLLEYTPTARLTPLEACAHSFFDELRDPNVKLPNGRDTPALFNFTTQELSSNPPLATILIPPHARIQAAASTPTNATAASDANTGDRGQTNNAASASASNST
T3 sequence (O96013 whole entry): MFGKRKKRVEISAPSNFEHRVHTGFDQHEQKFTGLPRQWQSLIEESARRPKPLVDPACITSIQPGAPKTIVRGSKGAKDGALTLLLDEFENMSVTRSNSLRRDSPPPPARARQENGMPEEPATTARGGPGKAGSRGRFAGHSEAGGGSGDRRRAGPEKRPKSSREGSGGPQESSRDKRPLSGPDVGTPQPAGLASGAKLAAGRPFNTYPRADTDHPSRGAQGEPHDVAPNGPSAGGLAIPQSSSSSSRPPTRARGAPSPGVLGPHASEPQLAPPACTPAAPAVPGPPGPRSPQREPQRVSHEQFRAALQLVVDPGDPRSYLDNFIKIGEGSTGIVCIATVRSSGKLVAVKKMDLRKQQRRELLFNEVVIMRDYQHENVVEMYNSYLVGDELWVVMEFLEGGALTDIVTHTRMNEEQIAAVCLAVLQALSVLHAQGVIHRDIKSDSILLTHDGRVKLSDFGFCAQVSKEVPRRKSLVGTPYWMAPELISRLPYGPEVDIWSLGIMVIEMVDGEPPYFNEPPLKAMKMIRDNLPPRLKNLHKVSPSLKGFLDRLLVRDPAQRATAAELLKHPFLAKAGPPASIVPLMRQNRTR
T9 sequence (P50613 whole entry): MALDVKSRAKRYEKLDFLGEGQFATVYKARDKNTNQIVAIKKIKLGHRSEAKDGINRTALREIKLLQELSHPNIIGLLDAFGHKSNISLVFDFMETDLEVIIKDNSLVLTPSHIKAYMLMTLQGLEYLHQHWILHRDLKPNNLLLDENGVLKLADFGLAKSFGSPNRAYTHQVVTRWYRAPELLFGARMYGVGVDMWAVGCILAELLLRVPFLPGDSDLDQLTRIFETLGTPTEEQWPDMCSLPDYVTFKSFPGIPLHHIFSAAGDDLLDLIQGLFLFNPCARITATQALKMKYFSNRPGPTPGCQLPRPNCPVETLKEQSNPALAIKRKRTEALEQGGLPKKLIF

For CCc1cc(O)c(F)cc1-c1ccc2c(-c3nc4c([nH]3)CCN(C(=O)[C@]35C[C@H]3CCN5)C4)n[nH]c2c1 [Compound C-1, ((1S,5R)-2-azabicyclo[3.1.0]hexan-1-yl)(2-(6-(2-ethyl-5-fluoro-4-hydroxyphenyl)-1H-indazol-3-yl)-1,4,6,7-tetrahydro-5H-imidazo[4,5-c]pyridin-5-yl)methanone, reference compound], the inhibition at 1 µM [1] was 98.9%, the inhibition at 1 µM [2] was 52% and the inhibition at 1 µM [3] was 89%. The inhibition at 1 µM [4] was 40%, the inhibition at 1 µM [5] was 50% and the inhibition at 1 µM [6] was 59%. The inhibition at 1 µM [7] was 99.9%, the inhibition at 1 µM [8] was 54% and the inhibition at 1 µM [9] was 98.8%. For the same molecule, the inhibition at 1 µM [10] was 66%, the inhibition at 1 µM [11] was 98.5% and the inhibition at 1 µM [12] was 89%. The inhibition at 1 µM [13] was 82%, the inhibition at 1 µM [14] was 96.5% and the inhibition at 1 µM [15] was 100%. It also gave an inhibition at 1 µM [16] of 87%, a CC15 [17] of 1580 nM and a pCC15 [17] of 5.8. The inhibition at 1 µM [18] was 55%.
